For orientation: EC50 means the concentration needed to bring the measured effect to its halfway point.

Numbered stars: 1 amine (or outer) side, 2 acyl side, 3 side chain; on linkers, the order of the positions; unused ones are H or OH. Bridge positions count the residues as written; N and C are the ends. Square brackets hold non-standard residues; d marks the D form. Side chains are listed from the residue outwards. Peptide text beside a SMILES is read from it. * marks the point of attachment. C20 diacid = O=C(O)CCCCCCCCCCCCCCCCCCC(=O)*; C18 diacid = O=C(O)CCCCCCCCCCCCCCCCC(=O)*; γGlu = O=C(O)[C@H](CCC(=O)[*:2])N[*:1]; βAsp = O=C(O)[C@H](CC(=O)[*:2])N[*:1]; Hyp = O=C(O)[C@@H]1C[C@@H](O)CN1; AEEA = NCCOCCOCC(=O)O

One data set concerns the target T1, human amylin receptor (Homo sapiens, UniProt O60896+P30988).
T1 construct: host or cells: CHO-K1/Ga15/AMY3 cells, further stably transfected with a CRE-luciferase plasmid
T1 sequence (P30988 25-474): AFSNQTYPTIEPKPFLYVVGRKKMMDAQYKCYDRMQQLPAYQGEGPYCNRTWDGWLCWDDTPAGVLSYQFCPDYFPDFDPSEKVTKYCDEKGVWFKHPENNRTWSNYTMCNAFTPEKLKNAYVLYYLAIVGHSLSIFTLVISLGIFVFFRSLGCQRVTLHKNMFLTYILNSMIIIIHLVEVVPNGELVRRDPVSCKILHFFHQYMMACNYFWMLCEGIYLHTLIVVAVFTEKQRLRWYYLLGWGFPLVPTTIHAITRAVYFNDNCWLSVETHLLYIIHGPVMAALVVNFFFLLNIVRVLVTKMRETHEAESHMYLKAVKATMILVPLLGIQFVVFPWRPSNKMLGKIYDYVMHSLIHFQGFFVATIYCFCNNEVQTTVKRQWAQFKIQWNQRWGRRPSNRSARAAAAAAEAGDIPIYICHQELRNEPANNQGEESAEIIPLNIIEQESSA
T1 sequence (O60896 24-148 partner): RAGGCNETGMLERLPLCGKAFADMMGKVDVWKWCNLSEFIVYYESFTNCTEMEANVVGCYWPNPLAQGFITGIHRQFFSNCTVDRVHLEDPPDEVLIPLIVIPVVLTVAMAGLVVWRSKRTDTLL
The experiment in a line: Luciferase assay of amylin derivatives in amylin receptor/CRE-luc CHO cell line. The class given is cell-based. As to conditions: CHO-K1/Ga15/AMY3 CRE-luc cells, 24 hours incubation, F12 medium containing 10% FBS; read-out: EC50.

A short description of data set [1]: Freeze-thaw stability of derivatives (freeze-thaw yield by liquid chromatography). The class given is physicochemical. The procedure:
The freeze-dried powder of the polypeptide analog derivative prepared in Example 1 was mixed with a buffer solution according to a mass-volume ratio of 0.2 mg/ml, the polypeptide was dissolved with 20 mM phosphate buffer solution (PB) (pH 7.0), the sample was stored at −20° C. for overnight storage, and then the sample was taken out to be restored to room temperature for thawing. During the experiment, property changes of the polypeptide after dissolution and freezing and thawing were observed and recorded respectively, and concentrations of the polypeptide before and after the freezing and thawing were detected by the following liquid chromatography method: Materials and equipment: high-performance liquid chromatographic instrument (Agilent 1200), ultrapure water (18.2 MΩ self-manufactured ultrapure water), acetonitrile (HPLC grade), and trifluoroacetic acid (HPLC grade); and reversed-phase chromatographic column: […] A sample to be tested was centrifuged at 10,000 rpm and 4° C. for 3 minutes, and a supernatant was taken and added into a liquid-phase sample injection bottle. […] A freeze-thaw yield was calculated by the following formula: freeze-thaw yield=concentration of polypeptide after the freezing and thawing/concentration of polypeptide before the freezing and thawing.

Method for human amylin receptor: The experiment was intended to detect the activity or efficacy of the amylin derivatives on a human amylin receptor in vitro by luciferase assay.
50 μL of growth medium (F12 medium containing 10% FBS) was added into each well of a white 96-well plate, and the stably transfected amylin/CRE-lue CHO cells were inoculated into the white 96-well plate at a density of about 20,000 cells/well for activity determination.

Consider `CC[C@H](C)[C@H](NC(=O)[C@@H]1CCCN1C(=O)[C@H](CCCCNC(=O)CC[C@H](NC(=O)CCCCCCCCCCCCCCCCCCC(=O)O)C(=O)O)NC(=O)[C@H](CC(C)C)NC(=O)[C@H](CC(N)=O)NC(=O)[C@H](CC(N)=O)NC(=O)[C@H](CO)NC(=O)[C@H](CO)NC(=O)[C@H](Cc1c[nH]cn1)NC(=O)[C@H](CCCNC(=N)N)NC(=O)[C@H](CC(C)C)NC(=O)[C@H](Cc1ccccc1)NC(=O)[C@H](CC(=O)O)NC(=O)[C@H](C)NC(=O)[C@H](CC(C)C)NC(=O)[C@H](CCCNC(=N)N)NC(=O)[C@H](CCC(N)=O)NC(=O)[C@@H](NC(=O)[C@H](C)NC(=O)[C@@H]1CSSC[C@H](NC(=O)[C@@H](N)CCCNC(=N)N)C(=O)N[C@@H](CC(N)=O)C(=O)N[C@@H]([C@@H](C)O)C(=O)N[C@@H](C)C(=O)N[C@@H]([C@@H](C)O)C(=O)N1)[C@@H](C)O)C(=O)N[C@@H](CC(C)C)C(=O)N1CCC[C@H]1C(=O)N1CCC[C@H]1C(=O)N[C@H](C(=O)N[C@@H](CC(N)=O)C(=O)N[C@H](C(=O)NCC(=O)N[C@@H](CO)C(=O)N[C@@H](CC(N)=O)C(=O)N[C@H](C(=O)N1C[C@H](O)C[C@H]1C(N)=O)[C@@H](C)O)C(C)C)[C@@H](C)O` [PD052] (H-RCNTATCATQRLADFLRHSSNNLK([γGlu-C20 diacid])PILPPTNVGSNT[Hyp]-NH2; disulfide 2-7 (inferred); N-terminus assumed), for which the EC50 on human amylin receptor was 0.03 nM. Moreover, the Dissolution property entry in data set [1] (appearance after dissolution at 0.2 mg/ml in 20 mM phosphate buffer solution (PB) (pH 7.0)) is given as “Clear”. In data set [1] (appearance after overnight storage at −20° C. and thawing to room temperature, 0.2 mg/ml in 20 mM PB (pH 7.0)), the Freeze storage property entry is reported as “Clear”. Moreover, the Freeze storage yield in data set [1] (concentration of polypeptide after freezing and thawing / concentration before, by liquid chromatography, −20° C. overnight) is 96.53%.

As for `CC[C@H](C)[C@H](NC(=O)[C@H](CCCCNC(=O)COCCOCCNC(=O)COCCOCCNC(=O)CC[C@H](NC(=O)CCCCCCCCCCCCCCCCC(=O)O)C(=O)O)NC(=O)CNC(=O)[C@H](CC(C)C)NC(=O)[C@H](CC(N)=O)NC(=O)[C@H](CC(N)=O)NC(=O)[C@H](CO)NC(=O)[C@H](CO)NC(=O)[C@H](Cc1c[nH]cn1)NC(=O)[C@H](CCCNC(=N)N)NC(=O)[C@H](CC(C)C)NC(=O)[C@H](Cc1ccccc1)NC(=O)[C@H](CC(=O)O)NC(=O)[C@H](C)NC(=O)[C@H](CC(C)C)NC(=O)[C@H](CCCNC(=N)N)NC(=O)[C@H](CCC(N)=O)NC(=O)[C@@H](NC(=O)[C@H](C)NC(=O)[C@@H]1CSSC[C@H](NC(=O)[C@@H](N)CCCNC(=N)N)C(=O)N[C@@H](CC(N)=O)C(=O)N[C@@H]([C@@H](C)O)C(=O)N[C@@H](C)C(=O)N[C@@H]([C@@H](C)O)C(=O)N1)[C@@H](C)O)C(=O)N[C@@H](CC(C)C)C(=O)N1CCC[C@H]1C(=O)N1CCC[C@H]1C(=O)N[C@H](C(=O)N[C@@H](CC(N)=O)C(=O)N[C@H](C(=O)NCC(=O)N[C@@H](CO)C(=O)N[C@@H](CC(N)=O)C(=O)N[C@H](C(=O)N1C[C@H](O)C[C@H]1C(N)=O)[C@@H](C)O)C(C)C)[C@@H](C)O` [PD105] (H-RCNTATCATQRLADFLRHSSNNLGK([AEEA-AEEA-γGlu-C18 diacid])ILPPTNVGSNT[Hyp]-NH2; disulfide 2-7), at human amylin receptor, the concentration giving a half-maximal response (EC50) is 0.033 nM.

Turning to `CC[C@H](C)[C@H](NC(=O)[C@@H]1CCCN1C(=O)CNC(=O)[C@H](CCCCNC(=O)COCCOCCNC(=O)CC[C@H](NC(=O)CCCCCCCCCCCCCCCCC(=O)O)C(=O)O)NC(=O)[C@H](CC(N)=O)NC(=O)[C@H](CC(N)=O)NC(=O)[C@H](CO)NC(=O)[C@H](CO)NC(=O)[C@H](Cc1c[nH]cn1)NC(=O)[C@H](CCCNC(=N)N)NC(=O)[C@H](CC(C)C)NC(=O)[C@H](Cc1ccccc1)NC(=O)[C@H](CC(=O)O)NC(=O)[C@H](C)NC(=O)[C@H](CC(C)C)NC(=O)[C@H](CCCNC(=N)N)NC(=O)[C@H](CCC(N)=O)NC(=O)[C@@H](NC(=O)[C@H](C)NC(=O)[C@@H]1CSSC[C@H](NC(=O)[C@@H](N)CCCNC(=N)N)C(=O)N[C@@H](CC(N)=O)C(=O)N[C@@H]([C@@H](C)O)C(=O)N[C@@H](C)C(=O)N[C@@H]([C@@H](C)O)C(=O)N1)[C@@H](C)O)C(=O)N[C@@H](CC(C)C)C(=O)N1CCC[C@H]1C(=O)N1CCC[C@H]1C(=O)N[C@H](C(=O)N[C@@H](CC(N)=O)C(=O)N[C@H](C(=O)NCC(=O)N[C@@H](CO)C(=O)N[C@@H](CC(N)=O)C(=O)N[C@H](C(=O)N1C[C@H](O)C[C@H]1C(N)=O)[C@@H](C)O)C(C)C)[C@@H](C)O` [PD111] (H-RCNTATCATQRLADFLRHSSNNK([AEEA-γGlu-C18 diacid])GPILPPTNVGSNT[Hyp]-NH2; disulfide 2-7), on human amylin receptor, the EC50 was 0.008 nM.

For the compound `CC[C@H](C)[C@H](NC(=O)[C@@H]1CCCN1C(=O)[C@H](CCCCN)NC(=O)[C@H](CC(C)C)NC(=O)[C@H](CC(N)=O)NC(=O)[C@H](CC(N)=O)NC(=O)[C@H](CO)NC(=O)[C@H](CO)NC(=O)[C@H](Cc1c[nH]cn1)NC(=O)[C@H](CCCNC(=N)N)NC(=O)[C@H](CC(C)C)NC(=O)[C@H](Cc1ccccc1)NC(=O)[C@H](CC(=O)O)NC(=O)[C@H](C)NC(=O)[C@H](CC(C)C)NC(=O)[C@H](CCCNC(=N)N)NC(=O)[C@H](CCC(N)=O)NC(=O)[C@@H](NC(=O)[C@H](C)NC(=O)[C@@H]1CSSC[C@H](NC(=O)[C@H](CCCCN)NC(=O)COCCOCCNC(=O)COCCOCCNC(=O)C[C@H](NC(=O)CCCCCCCCCCCCCCCCCCC(=O)O)C(=O)O)C(=O)N[C@@H](CC(N)=O)C(=O)N[C@@H]([C@@H](C)O)C(=O)N[C@@H](C)C(=O)N[C@@H]([C@@H](C)O)C(=O)N1)[C@@H](C)O)C(=O)N[C@@H](CC(C)C)C(=O)N1CCC[C@H]1C(=O)N1CCC[C@H]1C(=O)N[C@H](C(=O)N[C@@H](CC(N)=O)C(=O)N[C@H](C(=O)NCC(=O)N[C@@H](CO)C(=O)N[C@@H](CC(N)=O)C(=O)N[C@H](C(=O)N1C[C@H](O)C[C@H]1C(N)=O)[C@@H](C)O)C(C)C)[C@@H](C)O` [PD183] ({C20 diacid-βAsp-AEEA-AEEA}-KCNTATCATQRLADFLRHSSNNLKPILPPTNVGSNT[Hyp]-NH2; disulfide 2-7), at human amylin receptor, the EC50 stood at 0.04 nM.

Regarding `CC[C@H](C)[C@H](NC(=O)[C@@H]1CCCN1C(=O)[C@H](CC(=O)O)NC(=O)[C@H](CC(C)C)NC(=O)[C@H](CC(N)=O)NC(=O)[C@H](CC(N)=O)NC(=O)[C@H](CO)NC(=O)[C@H](CO)NC(=O)[C@H](Cc1c[nH]cn1)NC(=O)[C@H](CCCNC(=N)N)NC(=O)[C@H](CC(C)C)NC(=O)[C@H](Cc1ccccc1)NC(=O)[C@H](CC(=O)O)NC(=O)[C@H](C)NC(=O)[C@H](CC(C)C)NC(=O)[C@H](CCCNC(=N)N)NC(=O)[C@H](CCC(N)=O)NC(=O)[C@@H](NC(=O)[C@H](C)NC(=O)[C@@H]1CSSC[C@H](NC(=O)[C@H](CCCCN)NC(=O)CC[C@H](NC(=O)CCCCCCCCCCCCCCCCCCC(=O)O)C(=O)O)C(=O)N[C@@H](CC(N)=O)C(=O)N[C@@H]([C@@H](C)O)C(=O)N[C@@H](C)C(=O)N[C@@H]([C@@H](C)O)C(=O)N1)[C@@H](C)O)C(=O)N[C@@H](CC(C)C)C(=O)N1CCC[C@H]1C(=O)N1CCC[C@H]1C(=O)N[C@H](C(=O)N[C@@H](CC(N)=O)C(=O)N[C@H](C(=O)NCC(=O)N[C@@H](CO)C(=O)N[C@@H](CC(N)=O)C(=O)N[C@H](C(=O)N1CCC[C@H]1C(N)=O)[C@@H](C)O)C(C)C)[C@@H](C)O` [PD164] ({C20 diacid-γGlu}-KCNTATCATQRLADFLRHSSNNLDPILPPTNVGSNTP-NH2; disulfide 2-7 (inferred)), the EC50 at human amylin receptor worked out at 0.111 nM.

“{C20 diacid-γGlu}-KGGGGRCNTATCATQRLADFLRHSSNNLRPILPPTNVGSNTP-NH2 (disulfide 7-12 (inferred)) [PD198]”: the 50% effective concentration (EC50) at human amylin receptor was found to be 0.029 nM.

Values taken from patent US20260166128A1, “HUMAN AMYLIN ANALOG, AND DERIVATIVE THEREOF AND USE THEREOF” (priority 2022, published 2026).
